Data on one molecule can be found in patent US11802259B2, “Process of reducing malodors on fabrics” (The Procter & Gamble Company, priority 2019, dated 2023).

A short description of the test: Malodor Reduction Test Method (wash of body soil malodor test fabrics, SPME GC-MS of oxidation markers). The conditions noted are these: antioxidant at 0.035 wt % in detergent. Here is the method:
The following method is used to test the malodor reduction benefits of a composition.
Fatty acids and malodor markers are added into 100 ml glass gar with Teflon-lined cap according to Table A and mixed well using a vortex.
Provided the specified amount of each material according to Table B into a 200 mL glass jar with Teflon lined cap. Artificial body soil (ABS) is commercially available by Accurate Product Development; 2028 Bohlke Blvd, Fairfield, Ohio 45014.
Sixteen malodor test fabrics per wash load are prepared by applying 300 μl of Body soil malodor composition described in Table B to de-sized 2×5 inch white polycotton 50/50 (PCW50/50) swatches. 48 grams of liquid detergent to be tested (see, e.g., Example 1, Table 1, below) is added to Duet 9200 washing appliance set to Normal cycle; 77° F. wash cycle followed by a 60° F. rinse cycle. […]
The malodor reduction using ABS/Squalene malodor sensors are quantitatively determined by Gas Chromatography Mass Spectroscopy using an Agilent gas chromatograph 7890B equipped with a mass selective detector (5977B), a Chemstation quantitation package and a Gerstel multi-purpose sampler equipped with a solid phase micro-extraction (SPME) probe. […] Based on the partition coefficients (K at 80 C) of each component, the total nMol/L liter of 6-Methyl-5-hepten-2-one (K=3353), Trans-2-heptenal (K=3434), and 3-methyl-2-Butenal (K=1119) are calculated. […]

Take `Cc1c(C)c2c(c(C)c1O)CCC(C)(C(=O)O)O2` (stereo not shown) [Antioxidant 7, 3,4-dihydro-6-hydroxy-2,5,7,8-tetramethyl-2H-1-Benzopyran-2-carboxylic acid]: the “malodor reduction benefits (reduction in total oxidation markers)” value is recorded as “did not provide benefits”.
